Results from ChEMBL document CHEMBL1153696, “Hypoglycemic polysaccharides from the tuberous root of Liriope spicata” (2009).
Active and inactive are the calls of the source. The rule behind the calls is not given here.

What was measured:
Mus musculus [1] = test: Antidiabetic activity in BALB/c mouse type 2 diabetic model assessed as reduction of fasting blood glucose level at 200 mg/kg, po QD measured after 1 week by glucometry (Rvb=14.89 +/- 1.37 mmol/L); assay type: functional
Mus musculus [2] = test: Antidiabetic activity in BALB/c mouse type 2 diabetic model assessed as reduction of fasting blood glucose level at 100 mg/kg, po QD measured after 1 week by glucometry (Rvb=14.89 +/- 1.37 mmol/L); assay type: functional
Mus musculus [3] = test: Antidiabetic activity in BALB/c mouse type 2 diabetic model assessed as reduction of fasting blood glucose level at 200 mg/kg, po QD measured after 4 weeks by glucometry (Rvb=15.03 +/- 1.47 mmol/L); assay type: functional
Mus musculus [4] = test: Antidiabetic activity in BALB/c mouse type 2 diabetic model assessed as reduction of fasting blood glucose level at 200 mg/kg, po QD measured after 3 weeks by glucometry (Rvb=14.89 +/- 1.42 mmol/L); assay type: functional
Mus musculus [5] = test: Antidiabetic activity in BALB/c mouse type 2 diabetic model assessed as reduction of fasting blood glucose level at 100 mg/kg, po QD measured after 4 weeks by glucometry (Rvb=15.03 +/- 1.47 mmol/L); assay type: functional
Mus musculus [6] = test: Antidiabetic activity in BALB/c mouse type 2 diabetic model assessed as reduction of fasting blood glucose level at 100 mg/kg, po QD measured after 3 weeks by glucometry (Rvb=14.89 +/- 1.42 mmol/L); assay type: functional
Mus musculus [7] = test: Hypoglycemic effect in type 2 diabetic BALB/c mouse model assessed as reduction in blood glucose excursion at 100 to 200 mg/kg, po pretreated 60 mins before glucose challenge measured up to 3 hrs by one-touch glucometer relative to diabetic control; assay type: functional, organism-based
Mus musculus [8] = test: Hypoglycemic effect in type 2 diabetic BALB/c mouse model assessed as reduction in blood glucose excursion at 2 mg/kg, po pretreated 60 mins before glucose challenge measured up to 3 hrs by one-touch glucometer relative to diabetic control; assay type: functional, organism-based; set-up: dose 2 mg/kg
Mus musculus [9] = test: Antidiabetic activity in BALB/c mouse type 2 diabetic model assessed as reduction of fasting blood glucose level at 100 mg/kg, po QD measured after 2 weeks by glucometry (Rvb=14.86 +/- 1.58 mmol/L); assay type: functional
Mus musculus [10] = test: Antidiabetic activity in BALB/c mouse type 2 diabetic model assessed as reduction of fasting blood glucose level at 200 mg/kg, po QD measured after 2 weeks by glucometry (Rvb=14.86 +/- 1.58 mmol/L); assay type: functional
Mus musculus [11] = test: Antidiabetic activity in BALB/c mouse type 2 diabetic model assessed as reduction of fasting blood glucose level at 2 mg/kg, po QD measured after 2 weeks by glucometry (Rvb=14.86 +/- 1.58 mmol/L); assay type: functional
Mus musculus [12] = test: Antidiabetic activity in BALB/c mouse type 2 diabetic model assessed as reduction of fasting blood glucose level at 2 mg/kg, po QD measured after 3 weeks by glucometry (Rvb=14.89 +/- 1.42 mmol/L); assay type: functional
Mus musculus [13] = test: Antidiabetic activity in BALB/c mouse type 2 diabetic model assessed as reduction of fasting blood glucose level at 2 mg/kg, po QD measured after 4 weeks by glucometry (Rvb=15.03 +/- 1.47 mmol/L); assay type: functional
Mus musculus [14] = test: Antidiabetic activity in BALB/c mouse type 2 diabetic model assessed as reduction of fasting blood glucose level at 2 mg/kg, po QD measured after 1 week by glucometry (Rvb=14.89 +/- 1.37 mmol/L); assay type: functional

| Structure (SMILES) | Activity (Mus musculus [1]) [mmol/L] | Activity (Mus musculus [2]) [mmol/L] | Activity (Mus musculus [3]) [mmol/L] | Activity (Mus musculus [4]) [mmol/L] | Activity (Mus musculus [5]) [mmol/L] | Activity (Mus musculus [6]) [mmol/L] | Activity (Mus musculus [7]) | Activity (Mus musculus [8]) | Activity (Mus musculus [9]) [mmol/L] | Activity (Mus musculus [10]) [mmol/L] | Activity (Mus musculus [11]) [mmol/L] | Activity (Mus musculus [12]) [mmol/L] | Activity (Mus musculus [13]) [mmol/L] | Activity (Mus musculus [14]) [mmol/L] |
| --- | --- | --- | --- | --- | --- | --- | --- | --- | --- | --- | --- | --- | --- | --- |
| OC[C@H]1OC(CO)(OC[C@H]2O[C@@](CO[C@]3(CO[C@]4(CO[C@]5(CO[C@]6(CO[C@]7(CO)O[C@H](CO)[C@@H](O)[C@@H]7O)O[C@H](CO[C@]7(CO)O[C@H](CO)[C@@H](O)[C@@H]7O)[C@@H](O)[C@@H]6O)O[C@H](CO)[C@@H](O)[C@@H]5O)O[C@H](CO[C@]5(CO)O[C@H](CO)[C@@H](O)[C@@H]5O)[C@@H](O)[C@@H]4O)O[C@H](CO)[C@@H](O)[C@@H]3O)(OC[C@@]3(OC[C@@]4(OC[C@@]5(OC[C@@]6(OC[C@@]7(OC[C@@]8(OC[C@@]9(O[C@@H]%10O[C@H](CO)[C@@H](O)[C@H](O)[C@H]%10O)O[C@H](CO)[C@@H](O)[C@@H]9O)O[C@H](CO[C@]9(CO)O[C@H](CO)[C@@H](O)[C@@H]9O)[C@@H](O)[C@@H]8O)O[C@H](CO)[C@@H](O)[C@@H]7O)O[C@H](CO[C@]7(CO)O[C@H](CO)[C@@H](O)[C@@H]7O)[C@@H](O)[C@@H]6O)O[C@H](CO)[C@@H](O)[C@@H]5O)O[C@H](CO[C@]5(CO)O[C@H](CO)[C@@H](O)[C@@H]5O)[C@@H](O)[C@@H]4O)O[C@H](CO)[C@@H](O)[C@@H]3O)[C@@H](O)[C@@H]2O)[C@@H](O)[C@@H]1O (stereo partly specified) | 9.35 | 9.71 | 4.83 | 5.44 | 5.13 | 4.83 | Active | Active | 7.96 | 7.25 | – | – | – | – |
| OC[C@H]1O[C@@](CO)(OC[C@H]2O[C@@](CO[C@]3(CO[C@]4(CO)O[C@H](CO)[C@@H](O)[C@@H]4O)O[C@H](CO)[C@@H](O)[C@@H]3O)(OC[C@@]3(OC[C@@]4(OC[C@@]5(OC[C@@]6(OC[C@@]7(OC[C@@]8(OC[C@@]9(OC[C@@]%10(OC[C@@]%11(OC[C@@]%12(OC[C@@]%13(OC[C@@]%14(OC[C@@]%15(OC[C@@]%16(OC[C@@]%17(OC[C@@]%18(O[C@@H]%19O[C@H](CO)[C@@H](O)[C@H](O)[C@H]%19O)O[C@H](CO)[C@@H](O)[C@@H]%18O)O[C@H](CO[C@]%18(CO)O[C@H](CO)[C@@H](O)[C@@H]%18O)[C@@H](O)[C@@H]%17O)O[C@H](CO)[C@@H](O)[C@@H]%16O)O[C@H](CO)[C@@H](O)[C@@H]%15O)O[C@H](CO[C@]%15(CO)O[C@H](CO)[C@@H](O)[C@@H]%15O)[C@@H](O)[C@@H]%14O)O[C@H](CO)[C@@H](O)[C@@H]%13O)O[C@H](CO)[C@@H](O)[C@@H]%12O)O[C@H](CO[C@]%12(CO)O[C@H](CO)[C@@H](O)[C@@H]%12O)[C@@H](O)[C@@H]%11O)O[C@H](CO)[C@@H](O)[C@@H]%10O)O[C@H](CO)[C@@H](O)[C@@H]9O)O[C@H](CO[C@]9(CO)O[C@H](CO)[C@@H](O)[C@@H]9O)[C@@H](O)[C@@H]8O)O[C@H](CO)[C@@H](O)[C@@H]7O)O[C@H](CO)[C@@H](O)[C@@H]6O)O[C@H](CO[C@]6(CO)O[C@H](CO)[C@@H](O)[C@@H]6O)[C@@H](O)[C@@H]5O)O[C@H](CO)[C@@H](O)[C@@H]4O)O[C@H](CO)[C@@H](O)[C@@H]3O)[C@@H](O)[C@@H]2O)[C@@H](O)[C@@H]1O | 8.65 | 10.04 | 4.78 | 5.14 | 4.63 | 4.7 | Active | Active | 7.05 | 6.16 | – | – | – | – |
| CN(CCOc1ccc(CC2SC(=O)NC2=O)cc1)c1ccccn1 (stereo unspecified) [ROSIGLITAZONE] | – | – | – | – | – | – | Active | Active | – | – | 5.54 | 5.04 | 4.94 | 9.58 |
